Experimental data as given in paper PMC7038953 (2020).

Columns and labels:
Assay in all cases: fluorescence light-up, plate reader
Settings in all cases: 100 mM K+ (KCl); 20 mM Tris-HCl, pH 7.8; 5 µM dye, 5 µM oligonucleotide; not an affinity constant
[1] = test system: ON31 (RNA, G4) CACUGGUAGGUUGGUGUGGUUGGGGCCAGUG
[2] = test system: TBA25 (DNA, G4) TGGTAGGTTGGTGTGGTTGGGGCCA
[3] = test system: Tel23a (DNA, G4) AGGGTTAGGGTTAGGGTTAGGGT
[4] = test system: ON15 (RNA, G4) GGUUGGUGUGGUUGG
[5] = test system: TBA15 (DNA, G4) GGTTGGTGTGGTTGG
[6] = test system: TBA31 (DNA, G4) CACTGGTAGGTTGGTGTGGTTGGGGCCAGTG
[7] = test system: ON1+2 (ON1-ON2 duplex) (DNA, duplex) ATAAAATAAAAAATTACACTGG/CCAGTGTAATTTTTTATTTTAT
[8] = test system: TBA63 (DNA, G4) ATAAAATAAAAAATTACACTGGTAGGTTGGTGTGGTTGGGGCCAGTGTAATTTTTTATTTTAT

| Structure (SMILES) | Fluorescence Intensity Enhancement [1] [fold] | Fluorescence Intensity Enhancement [2] [fold] | Fluorescence Intensity Enhancement [3] [fold] | Fluorescence Intensity Enhancement [4] [fold] | Fluorescence Intensity Enhancement [5] [fold] | Fluorescence Intensity Enhancement [6] [fold] | other results |
| --- | --- | --- | --- | --- | --- | --- | --- |
| CC(=O)C1=N/C(=C\c2c[nH]c3ccccc23)C(=O)N1C | 19.0 ± 0.25 | 31.7 ± 0.40 | 7.1 ± 0.16 | 7.1 ± 0.09 | 2.9 ± 0.11 | 20.5 ± 0.22 |  |
| CN1/C(=C/c2cc[n+](C)cc2)Sc2ccccc21 |  |  |  |  |  |  | binding [1]: yes; binding [4]: yes |
| CN1C(=O)/C(=C/c2ccc(O)cc2)N=C1/C=C/c1ccc(Br)cc1 |  |  |  |  | 2.0 ± 0.08 | 7.4 ± 0.08 |  |
| CN1C(=O)/C(=C/c2ccc(O)cc2)N=C1/C=C/c1ccc(C(F)(F)F)cc1 | 2.5 ± 0.03 |  |  |  |  |  |  |
| CN1C(=O)/C(=C/c2ccc(O)cc2)N=C1/C=C/c1ccc(N(C)C)cc1 |  | 20.6 ± 0.29 |  |  |  | 12.3 ± 0.13 |  |
| CN1C(=O)/C(=C/c2ccc(O)cc2)N=C1/C=C/c1ccccc1F |  | 23.0 ± 0.25 |  |  |  |  |  |
| CN1C(=O)/C(=C/c2ccc(O)cc2)N=C1C(=O)c1ccccc1 |  | 8.7 ± 0.17 |  | 6.1 ± 0.10 |  |  |  |
| CN1C(=O)/C(=C/c2ccccc2)N=C1Nc1ccccc1 | 11.0 ± 0.13 |  |  | 4.7 ± 0.11 |  |  |  |
| COc1cc(/C=C2N=C(/C=C/c3ccncc3)N(C)C\2=O)cc(OC)c1O | 6.8 ± 0.13 |  | 6.2 ± 0.12 |  | 3.3 ± 0.13 | 16.5 ± 0.18 |  |
| Cc1ccc(/C(O)=C/C2=NC(=C\c3ccc(O)cc3)/C(=O)N2C)cc1 |  | 19.1 ± 0.21 | 12.4 ± 0.19 |  | 2.1 ± 0.12 | 18.8 ± 0.28 | Fluorescence Intensity Enhancement [7]: 4.0 ± 0.09 fold; Fluorescence Intensity Enhancement [8]: 12.1 ± 0.15 fold |
